We go through four compounds from patent US8575163B2, “Pyrrolopyridinylpyrimidin-2-ylamine derivatives” (Merck Patent GmbH, priority 2009, dated 2013).

Assay [1] has as its target T1, PDK1 (Homo sapiens, UniProt O15530).
T1 construct: His6 (N)
T1 sequence (O15530 51-556 limits assumed): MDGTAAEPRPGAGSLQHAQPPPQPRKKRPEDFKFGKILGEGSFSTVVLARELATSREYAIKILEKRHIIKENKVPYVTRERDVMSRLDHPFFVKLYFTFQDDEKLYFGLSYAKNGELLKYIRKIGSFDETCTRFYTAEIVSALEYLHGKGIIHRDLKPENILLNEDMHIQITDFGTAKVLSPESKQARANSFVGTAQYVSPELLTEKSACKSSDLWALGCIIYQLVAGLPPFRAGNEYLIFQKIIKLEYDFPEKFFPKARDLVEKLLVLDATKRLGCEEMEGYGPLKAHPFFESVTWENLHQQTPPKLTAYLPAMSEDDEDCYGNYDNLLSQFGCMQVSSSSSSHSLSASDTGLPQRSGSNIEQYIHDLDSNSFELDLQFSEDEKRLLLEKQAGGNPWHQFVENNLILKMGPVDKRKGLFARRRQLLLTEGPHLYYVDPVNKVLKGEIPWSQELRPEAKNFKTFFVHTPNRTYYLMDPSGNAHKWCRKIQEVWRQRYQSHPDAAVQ
As to the kind of experiment: Test for the inhibition of PDK1 (flashplate, 33P-ATP). The format is biochemical. The note with it: His6-PDK1 3.4 nM, 4 μM ATP, 30° C., 60 min. The procedure, abridged:
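His6-PDK1(1-50) (3.4 nM) and a biotinylated peptide substrate (400 nM) were incubated 60 min at 30° C with 4 μM ATP containing ^33P-ATP and test compound. Incorporated radioactivity was counted after subtracting a 100 nM staurosporine blank and expressed as % of control; IC50 derived from these.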

Assay [2] has as its system PDK1 kinase activity (phospho-T308-PKB) in PC3 cells. Kind of assay: Cellular testing of PDK1 kinase inhibitors in PC3 cells (Luminex, phospho-T308-PKB). The format is cell-based. The note with it: Homo sapiens, PC-3, 0.5 h, 30 min incubation, serum-free, read-out: IC50 PC3 cells [P-PKB T308]. On the procedure: Method for the Cellular Testing of PDK1 Kinase Inhibitors in PC3 Cells.
The cellular assay for the determination of the PDK1 kinase activity is carried out as a Luminex assay in the 96-well format. PC3 cells are shown at 20,000 cells per well in 100 μl of medium (45% of […]/45% of Ham's F12/10% of FCS) and incubated on the following day for 30 min with a serial dilution of the test substance (7 concentrations) under serum-free conditions. The cells are subsequently lysed using 90 μl of lysis buffer (20 mM tris/HCl pH 8.0, 150 mM NaCl, 1% of NP40, 10% of glycerol, 1% of phosphatase inhibitor I, 1% of phosphatase inhibitor II, 0.1% of protease inhibitor cocktail III, 0.01% of benzonase) per well, and the lysates are separated off from insoluble cell constituents by means of centrifugation through a 96-well filter plate (0.65 μm). The lysates are incubated overnight at 4° C. with shaking with Luminex beads to which an anti-total PKB antibody is coupled. The detection is carried out on the following day by addition of a phospho-T308-PKB antibody and a species-specific peroxidase-labelled secondary antibody. The detection of phospho-T308-PKB is carried out by measurement in a Luminex100 instrument by determination of 100 events per cavity in a measurement time of 60 sec. As pharmacological blank, the signals obtained from cells which have been treated with 10 μM staurosporin are subtracted from all other batches. The control value used for maximum phosphorylation of PKB on T308 are the signals from cells which have only been treated with the solvent (0.3% of DMSO). The values of the batches treated with test substance are calculated therefrom as percentage of control, and IC50 values are determined by means of RS1.

As to `CCCC(OCOC)(c1cccc(F)c1)c1cc(-c2c[nH]c3ncc(-c4cnn(C)c4)cc23)nc(N)n1` (centres unmarked) [A117, 4-[1-(3-fluorophenyl)-1-methoxymethoxybutyl]-6-[5-(1-methyl-1H-pyrazol-4-yl)-1H-pyrrolo[2,3-b]pyridin-3-yl]pyrimidin-2-ylamine], the IC50 in assay [1] turned out to be 450 nM; in assay [2] it was 980 nM.

Turning to `CCCC(O)(c1cc(-c2c[nH]c3ncc(-c4cnn(C)c4)cc23)nc(N)n1)c1ccccc1F` (centres unmarked) [A118, 1-{2-amino-6-[5-(1-methyl-1H-pyrazol-4-yl)-1H-pyrrolo[2,3-b]pyridin-3-yl]-pyrimidin-4-yl}-1-(2-fluorophenyl)butan-1-ol], the IC50 in assay [1] was determined as 29 nM; in assay [2], 240 nM.

Take `COCOC(C)(c1cc(-c2c[nH]c3ncc(-c4cnn(C)c4)cc23)nc(N)n1)c1ccccc1F` (centres unmarked) [A119, 4-[1-(2-fluorophenyl)-1-methoxymethoxyethyl]-6-[5-(1-methyl-1H-pyrazol-4-yl)-1H-pyrrolo[2,3-b]pyridin-3-yl]pyrimidin-2-ylamine]: the IC50 in assay [1] came out at 36 nM; in assay [2], 470 nM.

`CC(O)(c1cccc(F)c1)c1cc(-c2c[nH]c3ncc(-c4cnn(C(C)(C)C)c4)cc23)nc(N)n1` (centres unmarked) [A120, 1-{2-amino-6-[5-(1-tert-butyl-1H-pyrazol-4-yl)-1H-pyrrolo[2,3-b]pyridin-3-yl]-pyrimidin-4-yl}-1-(3-fluorophenyl)ethanol]: the IC50 in assay [1] was 250 nM; in assay [2] it was 1100 nM.

In general, IC50 refers to the midpoint of a concentration-inhibition curve.
